Test results published in US10174006B2, “Topical aqueous ophthalmic compositions containing a 1H-indole-1-carboxamide derivative and use thereof for treatment of ophthalmic disease” (Novartis AG, priority 2013, dated 2019).
Values after ≈ are worked out from the molar mass of the structure shown. Where two headings read alike, the source gives them in different places.

Experiments:
[1] = Solubility in 8% HP-γ-CD in acetate buffer with different pH adjustment agents (Table III); format: physicochemical
[2] = Ocular tissue and plasma PK after repeated t.i.d. monocular dosing for 7 days; format: in vivo, pigmented rabbits; details: 2% t.i.d. 7 days
Protocol: In the contralateral undosed eyes of the 2% t.i.d treatment group, N-(1-methyl-5-(trifluoromethyl)-1H-pyrazol-3-yl)-5-((6-((methylamino)methyl)pyrimidin-4-yl)oxy)-1H-indole-1-carboxamide exposure was lower with the AUClast values of 1260 ng*h/g in cornea, 293000 ng*h/g in RPE/choroid and 3640 ng*h/g in retina.
PK parameters of 1H-indole-1-carboxamide in ocular tissues and plasma following repeated t.i.d. monocular OD dosing for 7 days of 2% N-(1-methyl-5-(trifluoromethyl)-1H-pyrazol-3-yl)-5-((6-((methylamino)methyl)pyrimidin-4-yl)oxy)-1H-indole-1-carboxamide formulation in pigmented rabbits employing suspension C-2 in Table B below.

[3] = Ocular tissue and plasma PK after single unilateral topical dose; format: in vivo, pigmented NZW×NZR rabbits; details: pigmented NZW×NZR, rabbit, single unilateral 30 μL dose at 0.5%, 1% and 2%
Protocol: A single unilateral dose (30 μL) of a preferred ophthalmic suspension composition (i.e., suspension C-2 in Example 3 below) of the present invention was dosed onto the right (OD) eye of pigmented NZW×NZR rabbits at 0.5%, 1%, and 2% N-(1-methyl-5-(trifluoromethyl)-1H-pyrazol-3-yl)-5-((6-((methylamino)methyl)pyrimidin-4-yl)oxy)-1H-indole-1-carboxamide.

[4] = Equilibrium solubility in HPβCD or HPγCD in acetate (first Table I); format: physicochemical; details: for solubility at 3 day: thermodynamic from solid, read-out: 1H-indole-1-carboxamide Solubility
Excerpt: Hydroxypropyl-γ-cyclodextrin is preferred for dissolution of the 1H-indole-1-carboxamide.

[5] = Zeta potential of LHA510 particles with additives; format: physicochemical; details: dispersant deionized water
Protocol: It was determined that NaCMC unexpectedly provide the 1H-indole-1-carboxamide with desired Zeta Potential. In particular, NaCMC creates repulsive forces between the particles of 1H-indole-1-carboxamide.

[6] = Equilibrium solubility in HPβCD or HPγCD in acetate (first Table I); format: physicochemical; details: for solubility at 3 day: thermodynamic from solid, read-out: 1H-indole-1-carboxamide Solubility; remark: listed apart in the source
[7] = Solubility in 5% HP-β-CD at pH 4.5 versus pH 7 (Table II); format: physicochemical; details: for Solubility Enhancement (fold): compared to intrinsic solubility at pH 7
Excerpt: Thus, depending upon the type of composition, the desired pH of the composition may be different. For compositions that include the cyclodextrin derivative, particularly the β-cyclodextrin derivative, γ-cyclodextrin derivative or combination thereof, and even more typically hydroxypropy-β-cyclodextrin, hydroxypropyl-γ-cyclodextrin or a combination thereof, the pH is preferably relatively low. The relatively low pH is typically at least 3.0, more typically at least 4.0 and even more typically at least 4.3, but is typically no greater than 5.5, more typically no greater than 5.0 and even more typically no greater than 4.7. It is also preferable that the pH of the composition be at least 4.0 but no greater than 5.0 and more preferably at least 4.3 but no greater than 4.7. Such compositions will typically be solutions in which the 1H-indole-1-carboxamide is dissolved.

[8] = NZW×NZR (pigmented), rabbit, RPE/choroid of the dosed eye (OD), topical or ocular, 2 % formulation, RPE/Choroid OD (dosed eye)
[9] = NZW×NZR (pigmented), rabbit, cornea of the dosed (OD) eye, topical or ocular, Cornea OD (dosed eye)
[10] = NZW×NZR (pigmented), rabbit, cornea of the undosed (OS) eye, topical or ocular, Cornea OS (undosed eye)
[11] = pigmented NZW×NZR, rabbit, RPE/choroid of the undosed (OS) eye, topical or ocular, RPE/Choroid OS (undosed eye)
[12] = pigmented NZW×NZR, rabbit, retina of the dosed (OD) eye, topical or ocular, Retina OD (dosed eye)
[13] = pigmented NZW×NZR, rabbit, retina of the undosed (OS) eye, topical or ocular, Retina OS (undosed eye)

CNCc1cc(Oc2ccc3c(ccn3C(=O)Nc3cc(C(F)(F)F)n(C)n3)c2)ncn1 [LHA510, N-(1-methyl-5-(trifluoromethyl)-1H-pyrazol-3-yl)-5-((6-((methylamino)methyl)pyrimidin-4-yl)oxy)-1H-indole-1-carboxamide]
solubility ([1]; pH 4.732, aqueous with cosolvent or surfactant or cyclodextrin, pH adjustment agent 1N Glucoronic acid, final pH 4.732, read-out: 1H-indole-1-carboxamide Solubility): 36 mg/mL (≈ 80.8 mM) | solubility ([1]; pH 4.872, aqueous with cosolvent or surfactant or cyclodextrin, pH adjustment agent 1N Citric acid, final pH 4.872, read-out: 1H-indole-1-carboxamide Solubility): 6.88 mg/mL (≈ 15.4 mM) | solubility ([1]; pH 4.887, aqueous with cosolvent or surfactant or cyclodextrin, pH adjustment agent 1N Acetic acid, final pH 4.887, read-out: 1H-indole-1-carboxamide Solubility): 30.3 mg/mL (≈ 68 mM) | solubility ([1]; pH 4.887, aqueous with cosolvent or surfactant or cyclodextrin, pH adjustment agent 1N Hydrochloric acid, final pH 4.887, read-out: 1H-indole-1-carboxamide Solubility): 15.5 mg/mL (≈ 34.7 mM) | solubility ([1]; pH 4.902, aqueous with cosolvent or surfactant or cyclodextrin, pH adjustment agent 1N Methanesulfonic acid, final pH 4.902, read-out: 1H-indole-1-carboxamide Solubility): 32.6 mg/mL (≈ 73.1 mM) | solubility ([1]; pH 4.955, aqueous with cosolvent or surfactant or cyclodextrin, pH adjustment agent 1N Lactic acid, final pH 4.955, read-out: 1H-indole-1-carboxamide Solubility): 33 mg/mL (≈ 74.2 mM) | solubility ([1]; pH 4.973, aqueous with cosolvent or surfactant or cyclodextrin, pH adjustment agent 1N Sulfuric acid, final pH 4.973, read-out: 1H-indole-1-carboxamide Solubility): 35.6 mg/mL (≈ 79.9 mM) | solubility ([1]; pH 5.014, aqueous with cosolvent or surfactant or cyclodextrin, pH adjustment agent 1N Phosphoric acid, final pH 5.014, read-out: 1H-indole-1-carboxamide Solubility): 25.4 mg/mL (≈ 57.1 mM) | plasma accumulation [2]: no evidence of plasma accumulation | AUClast Mean ([2]; Cornea OD (dosed eye), Tlast = 96 h): 317000 ng·h/g | AUClast Mean ([2]; Cornea OS (undosed eye), Tlast = 96 h): 1260 ng·h/g | Cmax [2, 8]: 6410 ng/g | Tmax [2, 8]: 0.5 h | Cmax [2, 9]: 32300 ng/g | Tmax [2, 9]: 1 h | Cmax [2, 10]: 47.5 ng/g | Tmax [2, 10]: 0 h | Tmax ([2]; NZW×NZR (pigmented), rabbit, topical or ocular, Plasma): 0.5 h | Cmax ([2]; NZW×NZR (pigmented), rabbit, topical, Plasma): 1.85 ng/mL | AUC(0-t) ([2]; NZW×NZR (pigmented), rabbit, topical, Plasma, Tlast = 96 h, read-out: AUClast Mean): 5.12 ng·h/mL | AUClast Mean ([2]; RPE/Choroid OD (dosed eye), Tlast = 96 h): 453000 ng·h/g | AUClast Mean ([2]; RPE/Choroid OS (undosed eye), Tlast = 96 h): 293000 ng·h/g | local penetration in the dosed eyes as share of the total AUClast ([2]; RPE/choroid): 37.1% | AUClast Mean ([2]; Retina OD (dosed eye), Tlast = 96 h): 8400 ng·h/g | AUClast Mean ([2]; Retina OS (undosed eye), Tlast = 96 h): 3640 ng·h/g | Cmax [2, 11]: 3950 ng/g | Tmax [2, 11]: 18 h | Cmax [2, 12]: 122 ng/g | Tmax [2, 12]: 18 h | Cmax [2, 13]: 67.2 ng/g | Tmax [2, 13]: 18 h | local penetration in the dosed eyes as share of the total AUClast ([2]; retina): 56.7% | Tmax ([3]; RPE/choroid): 18 to 48 h | Tmax ([3]; all ocular tissues and plasma except RPE/choroid): 0.5 to 3 h | 1H-indole-1-carboxamide Solubility ([4]; 1% HPγCD in Acetate, pH 4.607, equilibrium solubility at day 3): 9.09 mg/mL | 1H-indole-1-carboxamide Solubility ([4]; 2.5% HPγCD in Acetate, pH 4.555, equilibrium solubility at day 3): 14.69 mg/mL | solubility at 3 day ([4]; 2.5% HPγCD in acetate, pH 4.555, aqueous with cosolvent or surfactant or cyclodextrin, 2.5% HPγCD in Acetate, pH 4.555, equilibrium solubility at day 3): 14.7 mg/mL (≈ 33.1 mM) | 1H-indole-1-carboxamide Solubility ([4]; 5% HPγCD in Acetate, pH 4.505, equilibrium solubility at day 3): 22.34 mg/mL | solubility at 3 day ([4]; 5% HPγCD in acetate, pH 4.505, aqueous with cosolvent or surfactant or cyclodextrin, 5% HPγCD in Acetate, pH 4.505, equilibrium solubility at day 3): 21.9 mg/mL (≈ 49.1 mM) | 1H-indole-1-carboxamide Solubility ([4]; 8% HPγCD in Acetate, pH 4.580, equilibrium solubility at day 3): 30.60 mg/mL | solubility at 3 day ([4]; 10% HPγCD in acetate, pH 4.668, aqueous with cosolvent or surfactant or cyclodextrin, 10% HPγCD in Acetate, pH 4.668, equilibrium solubility at day 3): 34.3 mg/mL (≈ 77 mM) | Zeta Potential ([5]; Additive: 10 mM NaCl): 0.6 mV | Zeta Potential ([5]; Additive: 0.1% Pluronic F127): −1.09 mV | Zeta Potential ([5]; Additive: 0.5% Sodium CMC 7LF PH): −40.3 mV | Zeta Potential ([5]; Additive: 1% Pluronic F127): −0.962 mV | Zeta Potential ([5]; Additive: 1% Polyvinyl phosphoric acid (PVPA)): −0.835 mV | Zeta Potential ([5]; Additive: 1% Povidone (PVP 29/32)): 0 mV | Zeta Potential ([5]; Additive: 1% Sodium CMC 7LF PH): −47.8 mV | Zeta Potential ([5]; Additive: 1% Vitamin E TPGS): −1.77 mV | Zeta Potential ([5]; Additive: None): −2.58 mV | 1H-indole-1-carboxamide Solubility ([6]; 1% HPβCD in Acetate, pH 4.584, equilibrium solubility at day 3): 7.28 mg/mL | solubility at 3 day ([6]; 1% HPβCD in acetate, pH 4.584, aqueous with cosolvent or surfactant or cyclodextrin, 1% HPβCD in Acetate, pH 4.584, equilibrium solubility at day 3): 7.5 mg/mL (≈ 16.8 mM) | solubility at 3 day ([6]; 1% HPγCD in acetate, pH 4.607, aqueous with cosolvent or surfactant or cyclodextrin, 1% HPγCD in Acetate, pH 4.607, equilibrium solubility at day 3): 9.28 mg/mL (≈ 20.8 mM) | 1H-indole-1-carboxamide Solubility ([6]; 2.5% HPβCD in Acetate, pH 4.606, equilibrium solubility at day 3): 12.45 mg/mL | solubility at 3 day ([6]; 2.5% HPβCD in acetate, pH 4.606, aqueous with cosolvent or surfactant or cyclodextrin, 2.5% HPβCD in Acetate, pH 4.606, equilibrium solubility at day 3): 12.5 mg/mL (≈ 28 mM) | 1H-indole-1-carboxamide Solubility ([6]; 5% HPβCD in Acetate, pH 4.670, equilibrium solubility at day 3): 15.93 mg/mL | solubility at 3 day ([6]; 5% HPβCD in acetate, pH 4.67, aqueous with cosolvent or surfactant or cyclodextrin, 5% HPβCD in Acetate, pH 4.670, equilibrium solubility at day 3): 19.6 mg/mL (≈ 44 mM) | 1H-indole-1-carboxamide Solubility ([6]; 8% HPβCD in Acetate, pH 4.530, equilibrium solubility at day 3): 25.67 mg/mL | solubility at 3 day ([6]; 8% HPβCD in acetate, pH 4.53, aqueous with cosolvent or surfactant or cyclodextrin, 8% HPβCD in Acetate, pH 4.530, equilibrium solubility at day 3): 25.7 mg/mL (≈ 57.6 mM) | solubility at 3 day ([6]; 8% HPγCD in acetate, pH 4.58, aqueous with cosolvent or surfactant or cyclodextrin, 8% HPγCD in Acetate, pH 4.580, equilibrium solubility at day 3): 30.7 mg/mL (≈ 68.8 mM) | 1H-indole-1-carboxamide Solubility ([6]; 10% HPβCD in Acetate, pH 4.610, equilibrium solubility at day 3): 30.57 mg/mL | solubility at 3 day ([6]; 10% HPβCD in acetate, pH 4.61, aqueous with cosolvent or surfactant or cyclodextrin, 10% HPβCD in Acetate, pH 4.610, equilibrium solubility at day 3): 30.6 mg/mL (≈ 68.7 mM) | 1H-indole-1-carboxamide Solubility ([6]; 10% HPγCD in Acetate, pH 4.668, equilibrium solubility at day 3): 34.56 mg/mL | solubility ([7]; 5% HP-β-CD in acetate buffer, aqueous with cosolvent or surfactant or cyclodextrin, 5% HP-β-CD/Acetate buffer/pH 4.5, final pH 4.64, read-out: 1H-indole-1-carboxamide Solubility): 11.7 mg/mL | solubility ([7]; 5% HP-β-CD in phosphate buffer, aqueous with cosolvent or surfactant or cyclodextrin, 5% HP-β-CD/Phosphate buffer/pH 7, final pH 7.06, read-out: 1H-indole-1-carboxamide Solubility): 1.01 mg/mL | Solubility Enhancement (fold) ([7]; 5% HP-β-CD/Acetate buffer/pH 4.5): 1667 fold | Solubility Enhancement (fold) ([7]; 5% HP-β-CD/Phosphate buffer/pH 7): 144 fold | solubility ([7]; pH 7, aqueous buffer, read-out: intrinsic solubility): ~0.007 mg/mL
